From patent US8609616B2, “Strontium-containing compounds for use in the prevention or treatment of necrotic bone conditions” (Osteologix A/S, priority 2004, dated 2013)

Test system: animal model of osteonecrosis
Test: Effect of strontium malonate in an animal model of osteonecrosis (necrotic bone graft in titanium chamber, histology)
Assay type: in vivo, rat
Conditions: male Sprague-Dawley rats, necrotic bone graft in tibia, 1.6 g/l in drinking water ad libitum (approx. 120 mg strontium malonate/day), 6 weeks; mean (±SD); p=0.038 vs calcium malonate control 2.24 (±1.00)
Description: The rationale for the study was to assess the ability of strontium to act as a therapeutic and bone growth promoting (i.e. pro-anabolic) agent in an animal model of osteonecrosis. […] The necrotic graft was degraded, while ingrowth of new bone occurred. At termination of the experiment, the structural grafts was removed and analyzed by histology to quantify both the degradation of the necrotic graft as well as ingrowth of new bone. Concomitant treatment with anabolic and/or anti-resorptive agents may be given after the insertion of the necrotic graft, and the effect monitored after termination of the experiment. This rat model has previously been described (Astrand J, Aspenberg P. BMC Musculoskelet Disord. 2002; 3(1):19).
The salts were prepared in a solution of 1.6 g/l, which is close to saturation (22-25° C.). Thus extensive stirring was required to completely dissolve the substances. A new batch of drinking water was prepared fresh every week for the duration of the experiment. When not in use the solution was stored at room temperature in a closed container. […]
After careful removal from the titanium chamber, the grafts were decalcified in 10% formic acid, 2% formaldehyde for 14 days. […] Each section was subsequently stained with hematoxylin and eosin, and visually scored for appearance of degradation of the necrotic graft as well as ingrowth of new bone.

O=C([O-])CC(=O)[O-].[Sr+2] [strontium malonate]
average ingrowth of new bone (ingrowth distance): 3.43 (±1.35 (SD)) mm
